Data reported in article PMC11531508 (Scientific Reports, 2024).

Target: AChE (Electrophorus electricus) (Electrophorus electricus, UniProt O42275)
Test: In vitro acetylcholinesterase inhibition assay
Format: biochemical

AChE (Electrophorus electricus), sequence (O42275 24-633): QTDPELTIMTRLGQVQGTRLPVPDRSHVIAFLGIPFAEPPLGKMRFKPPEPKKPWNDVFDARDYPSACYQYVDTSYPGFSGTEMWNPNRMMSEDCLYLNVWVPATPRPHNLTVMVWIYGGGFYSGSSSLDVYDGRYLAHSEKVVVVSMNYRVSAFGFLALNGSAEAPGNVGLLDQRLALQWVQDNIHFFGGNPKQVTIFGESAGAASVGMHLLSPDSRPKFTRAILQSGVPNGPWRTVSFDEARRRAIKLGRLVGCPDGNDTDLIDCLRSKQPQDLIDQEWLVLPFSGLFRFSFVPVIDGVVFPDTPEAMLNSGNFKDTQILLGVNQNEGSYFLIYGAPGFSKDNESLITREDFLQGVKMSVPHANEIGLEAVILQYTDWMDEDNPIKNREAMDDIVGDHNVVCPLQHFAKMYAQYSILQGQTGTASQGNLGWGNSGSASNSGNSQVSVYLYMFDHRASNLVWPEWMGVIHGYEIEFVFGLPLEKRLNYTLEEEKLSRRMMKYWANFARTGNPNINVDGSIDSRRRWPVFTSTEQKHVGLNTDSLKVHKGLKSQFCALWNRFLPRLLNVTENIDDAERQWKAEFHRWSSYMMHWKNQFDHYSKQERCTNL

Compared with `COc1cc(-c2nc3ccccc3s2)cc(OC)c1OCCCCCOc1cc(=O)oc2ccccc12` [Compound 3i, 4-((5-(4-(Benzo[d]thiazol-2-yl)-2,6-dimethoxyphenoxy)pentyl)oxy)-2H-chromen-2-one], `COc1cc(-c2nc3ccccc3s2)cc(OC)c1OCCCCCCOc1cc(=O)oc2ccccc12` [Compound 3n, 4-((6-(4-(Benzo[d]thiazol-2-yl)-2,6-dimethoxyphenoxy)hexyl)oxy)-2H-chromen-2-one] is 4.5-fold higher in IC50: 2.7 ± 0.1 µM for the first, 12.1 ± 0.19 µM for the second. The first is the more potent here.

First: O=c1cc(OCCCCOc2ccc(-c3nc4ccccc4s3)cc2)c2ccccc2o1 [Compound 3a, 4-(4-(4-(Benzo[d]thiazol-2-yl)phenoxy)butoxy)-2H-chromen-2-one]
Second: O=c1cc(OCCCCCOc2ccc(-c3nc4ccccc4s3)cc2)c2ccccc2o1 [Compound 3f, 4-((5-(4-(Benzo[d]thiazol-2-yl)phenoxy)pentyl)oxy)-2H-chromen-2-one]
The IC50 of the first is 2-fold lower: 4.23 ± 0.11 µM for the first, 8.5 ± 0.18 µM for the second. The first is the more potent here.

Going from `COc1cc(-c2nc3ccccc3s2)cc(OC)c1OCCCCOc1cc(=O)oc2ccccc12` [Compound 3d, 4-(4-(4-(Benzo[d]thiazol-2-yl)-2,6-dimethoxyphenoxy)butoxy)-2H-chromen-2-one] to `COc1cc(-c2nc3ccccc3s2)ccc1OCCCCOc1cc(=O)oc2ccccc12` [Compound 3b, 4-(4-(4-(Benzo[d]thiazol-2-yl)-2-methoxyphenoxy)butoxy)-2H-chromen-2-one], the IC50 rises from 6.8 ± 0.1 µM to 16.5 ± 0.23 µM (2.4-fold). The first is the more potent here.

First: CCOc1cc(-c2nc3ccccc3s2)ccc1OCCCCOc1cc(=O)oc2ccccc12 [Compound 3c, 4-(4-(4-(Benzo[d]thiazol-2-yl)-2-ethoxyphenoxy)butoxy)-2H-chromen-2-one]
Second: CCOc1cc(-c2nc3ccccc3s2)ccc1OCCCCCOc1cc(=O)oc2ccccc12 [Compound 3h, 4-((5-(4-(Benzo[d]thiazol-2-yl)-2-ethoxyphenoxy)pentyl)oxy)-2H-chromen-2-one]
The IC50 of the first is 2.4-fold higher: 15.8 ± 0.18 µM for the first, 6.5 ± 0.12 µM for the second. The second is the more potent here.

Going from `COc1cc(OCCCCOc2cc(=O)oc3ccccc23)ccc1-c1nc2ccccc2s1` [Compound 3e, 4-(4-(4-(Benzo[d]thiazol-2-yl)-3-methoxyphenoxy)butoxy)-2H-chromen-2-one] to `COc1cc(OCCCCCOc2cc(=O)oc3ccccc23)ccc1-c1nc2ccccc2s1` [Compound 3j, 4-((5-(4-(Benzo[d]thiazol-2-yl)-3-methoxyphenoxy)pentyl)oxy)-2H-chromen-2-one], the IC50 falls from 18.7 ± 0.28 µM to 7.5 ± 0.16 µM (2.5-fold).

`COc1cc(OCCCCCCOc2cc(=O)oc3ccccc23)ccc1-c1nc2ccccc2s1` [Compound 3o, 4-((6-(4-(Benzo[d]thiazol-2-yl)-3-methoxyphenoxy)hexyl)oxy)-2H-chromen-2-one] and `COc1cc(-c2nc3ccccc3s2)ccc1OCCCCCCOc1cc(=O)oc2ccccc12` [Compound 3l, 4-((6-(4-(Benzo[d]thiazol-2-yl)-2-methoxyphenoxy)hexyl)oxy)-2H-chromen-2-one] are within 1.5-fold of each other in IC50: 30.7 ± 0.23 µM for the first, 33.2 ± 0.28 µM for the second.

`O=c1cc(OCCCCCCOc2ccc(-c3nc4ccccc4s3)cc2)c2ccccc2o1` [Compound 3k, 4-((6-(4-(Benzo[d]thiazol-2-yl)phenoxy)hexyl)oxy)-2H-chromen-2-one] and `CCOc1cc(-c2nc3ccccc3s2)ccc1OCCCCCCOc1cc(=O)oc2ccccc12` [Compound 3m, 4-((6-(4-(Benzo[d]thiazol-2-yl)-2-ethoxyphenoxy)hexyl)oxy)-2H-chromen-2-one] are within 1.5-fold of each other in IC50: 35.8 ± 0.3 µM for the first, 27.9 ± 0.2 µM for the second.

`COc1cc(-c2nc3ccccc3s2)ccc1OCCCCCOc1cc(=O)oc2ccccc12` [Compound 3g, 4-((5-(4-(Benzo[d]thiazol-2-yl)-2-methoxyphenoxy)pentyl)oxy)-2H-chromen-2-one] was tested, and the IC50 was 6.8 ± 0.13 µM.
